Source: US10517889B2, “Modulators of SMAD7 expression” (Ionis Pharmaceuticals, Inc., priority 2017, dated 2019)
Strand notation (5' to 3'): a small letter for the sugar, then the base; units joined by * are phosphorothioate-linked, units joined directly phosphodiester-linked; [ ] holds rarer units or linkages, { } end groups; capitals alone tell only the bases. k = constrained ethyl (cEt); [5mC] = 5-methylcytosine; d = 2'-deoxy (DNA)

Key:
[1] = system: human SMAD7 mRNA; assay: Antisense inhibition of human SMAD7 mRNA expression in Hep3B cells by 3-10-3 cEt gapmers, 10,000 nM, electroporation (Example 2); type: cell-based; details: Hep3B cells, approximately 24 hours; for % Inhibition: electroporation with 10,000 nM antisense oligonucleotide, RTS5062, percent inhibition of SMAD7 mRNA relative to untreated control cells; for % inhibition of SMAD7 mRNA expression: electroporation, 10,000 nM antisense oligonucleotide, RTS5062, relative to untreated control cells
Method in brief: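 Hep3B cells (20,000 per well) were electroporated with 10,000 nM 16-mer 3-10-3 cEt gapmer (phosphorothioate, 5-methylcytosine). After about 24 h, SMAD7 mRNA was quantified by qRT-PCR with primer probe set RTS5062, normalised to RIBOGREEN total RNA, and expressed as percent inhibition versus untreated cells.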

[2] = system: human SMAD7 mRNA; assay: Dose-dependent inhibition of human SMAD7 mRNA expression in Hep3B cells (Example 3, Study 1 and 2); type: cell-based; details: electroporation; for % inhibition of SMAD7 mRNA expression: approximately 16 hours; for IC50: Study 2 (740-20000 nM)
Method in brief: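 Hep3B cells, 20,000 per well, electroporated with antisense oligonucleotide at 0.31, 1.25, 5.00 or 20.00 μM (first series) or 0.74, 2.22, 6.67 or 20.00 μM (second series). After ~16 h, SMAD7 mRNA measured by RT-qPCR (RTS5062), normalised to RIBOGREEN total RNA. Percent inhibition vs untreated cells; IC50 derived.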

[3] = 740 nM, Study 2, relative to untreated control cells

Substance	% Inhibition [1] [%]	% inhibition of SMAD7 mRNA expression [2, 3] [%]	% inhibition of SMAD7 mRNA expression ([2]; 2220 nM, Study 2) [%]	% inhibition of SMAD7 mRNA expression ([2]; 6670.0 nM, Study 2) [%]	% inhibition of SMAD7 mRNA expression ([2]; 20000.0 nM, Study 2) [%]	IC50 [2] [µM]	% inhibition of SMAD7 mRNA expression [1] [%]
799631 (k[5mC]*k[5mC]*kA*dA*dA*dT*d[5mC]*dA*d[5mC]*dA*dA*dA*dG*k[5mC]*kA*kG; antisense) [compound 799631]	82	0	25	49	88	3	–
799663 (antisense kG*k[5mC]*kA*d[5mC]*dA*dG*d[5mC]*d[5mC]*dA*dA*dG*dA*dG*kA*kT*kG) [compound 799663]	57	19	43	61	89	> 20	–
799667 (antisense kA*k[5mC]*kA*dG*dA*dT*dG*d[5mC]*d[5mC]*dA*dG*d[5mC]*dA*kA*kG*kG) [compound 799667]	79	8	8	17	47	9	–
799668 (antisense kG*kA*k[5mC]*dA*dG*dA*dT*dG*d[5mC]*d[5mC]*dA*dG*d[5mC]*kA*kA*kG) [compound 799668]	75	15	17	39	72	1	–
799669 (antisense kT*kA*kT*dG*dA*d[5mC]*dA*dG*dA*dT*dG*d[5mC]*d[5mC]*kA*kG*k[5mC]) [compound 799669]	81	47	72	82	95	3	–
799671 (antisense kA*kG*kG*dT*dA*dT*dT*dT*dT*dT*dG*dA*dA*kG*kG*k[5mC]) [compound 799671]	59	22	56	71	74	2	–
799673 (antisense k[5mC]*kT*kG*dA*dT*dT*dA*dA*d[5mC]*dT*dT*dT*d[5mC]*k[5mC]*kT*kT) [compound 799673]	–	29	66	74	86	4	64
799674 (antisense kG*kA*kT*d[5mC]*dA*d[5mC]*dA*dA*dT*dT*d[5mC]*d[5mC]*dA*kA*kG*k[5mC]) [compound 799674]	–	16	35	64	91	14	48
799686 (antisense kG*kA*kG*dA*dT*dT*dT*dT*dA*dA*dA*dT*dG*k[5mC]*kT*kG) [compound 799686]	62	18	35	36	56	2	–
799689 (antisense kT*kG*k[5mC]*dT*dA*d[5mC]*dA*dG*dT*dG*dT*d[5mC]*dA*k[5mC]*k[5mC]*kA) [compound 799689]	63	34	49	65	73	5	–
799708 (antisense k[5mC]*kA*kA*dA*d[5mC]*dT*dT*dG*dT*dG*dG*dT*dA*kA*kA*kA) [compound 799708]	60	15	35	52	79	11	–
799709 (antisense kT*k[5mC]*kA*dA*dA*d[5mC]*dT*dT*dG*dT*dG*dG*dT*kA*kA*kA) [compound 799709]	60	0	27	36	62	7	–
799711 (antisense kG*kG*kT*d[5mC]*dA*dA*dA*d[5mC]*dT*dT*dG*dT*dG*kG*kT*kA) [compound 799711]	60	36	47	51	54	5	–
799712 (antisense kA*kT*kA*dG*dA*dT*dT*dA*dT*d[5mC]*d[5mC]*dA*dA*kG*kT*kA) [compound 799712]	–	27	45	55	63	3	70
799718 (antisense k[5mC]*kT*kG*d[5mC]*dT*dA*dG*dG*dG*dA*dT*dA*d[5mC]*kT*kG*kA) [compound 799718]	–	23	52	66	72	4	65
799722 (antisense kG*k[5mC]*kA*dG*dA*dG*dT*dG*dA*dG*dA*dA*d[5mC]*kA*kA*kG) [compound 799722]	67	17	38	53	82	5	–
